# Structures can show the parent of a compound that is named as a salt.
# Assays:
# ddy mice = assay: Toxicity test: minimum lethal dose; format: in vivo; settings: 5-week old male ddy mice
# Method: In this example, tests were conducted to confirm the safety of THC, which is the active ingredient of the drug of the present invention.
# THC was administered by oral administration or intraperitoneal injection to five 5-week old male ddy mice.
# [1] = tested on: hydrochloric acid-ethanol-induced ulcer; assay: Antiulcer activity: HCl-ethanol ulcer model test; format: in vivo, SD male rats; settings: for Inhibition Ratio (ulcer) / Ulcer Index: Dose 100 (unit not given), oral, n = 5 rats; for Ulcer Index: **: P < 0.01 vs control group (46.7 ± 34.6)
# Method: Antiulcer activity was tested using hydrochloric acid-ethanol-induced ulcer model test which is widely used for evaluating the effectiveness of antiulcer drugs.
# A group of five SD male rats each weighing from 200 to 250 g were starved for 24 hours, and then administered orally with 1.0 ml/200 g of 150 mM hydrochloric acid-60% ethanol. After 1 hour, the animals were sacrificed with ether, and the stomach was taken out from each animal. After pouring 10 ml of physiological saline in each of them the stomachs were dipped in 1% formalin solution for 10 minutes to fix them. Each of the stomachs was incised along the greater curvature (curvatura ventriculi major) and the lengths of mucosal ulcers which appeared in the gastric gland portion were measured under microscope (×10). The sum of the lengths per animal was calculated and defined as ulcer index. Test drugs were administered orally in a dose of 1,0 ml/200 g after 10 minutes from the induction of stress. Cetraxate hydrochloride known as antiulcer drug was used as positive comparative compound.
# [2] = tested on: kidney injury induced by cis-platinum; assay: Cis-platinum-induced kidney injury model test; format: in vivo, ddy male mice; settings: for Blood Urea Nitrogen: 100 mg/kg/day oral, 5 days before and 5 days after 17 mg/kg s.c. cis-platinum, serum, mice, **: P < 0.01, *: P < 0.05 vs cis-platinum group (114.7 ± 18.4)
# Method: In this example, tests were conducted to examine the therapeutical activity of THC against kidney injury induced by cis-platinum (cis-DDP) which is an anti-cancer drug and is known to have a very strong effect of inducing functional disorders of the kidney.
# A group of ten ddy male mice each weighing from 20 to 25 g were orally administered with 100 mg/kg/day of THC or isoliquiritigenin (positive comparative compound) for 5 continuous days, subcutaneously injected with 17 mg/kg of cis-platinum once on the fifth day, and were treated moreover for 5 continuous days orally administered with THC or isoliquiritigenin in the same manner as above. Thereafter, blood samples were collected, and blood urea nitrogen (BUN) in the serum was measured.
# In the test, a group of ten non-treated ddy male mice each weighing from 20 to 25 g were subcutaneously administered once with 17 mg/kg of cis-platinum only. This group was used as control.
# For the measurement of blood urea nitrogen, there was used Urea NB-Test Wako (produced by Wako Pure Chemical Industry Co., Ltd.).
# mast cells = assay: Antiallergic activity: inhibition of histamine liberation from mast cells by Compound 48/80; format: cell-based, rat; settings: for Liberation Ratio of Histamine / inhibition at 30 µM: 0.03 mM, Compound 48/80-induced; for Liberation Ratio of Histamine: control 82.4, blank 3.4; for inhibition at 30 µM: Rattus norvegicus, Mast cell, read-out: Inhibition Ratio (histamine liberation)
# Method: Locke's solution (10 ml) containing 0.1% by weight of bovine serum albumin was injected into the abdominal cavity of a rat which had been sacrificed by exsanguination. The rat was lightly massaged, then subjected to an abdominal section so that an abdominal solution was collected. The abdominal cavity was also washed with 5 ml of the same solution and the washing solution was collected and mixed with the above abdominal solution. The abdominal solution was centrifuged at 500 rpm for 5 minutes, then 5 ml of cool Locke's solution was added to the sediment. After the sediment had been washed, 3 ml of cool Locke's solution was again added thereto to form a solution of rat peritoneal exudation cells.
# Locke's solution (0.5 ml) and 1.0 ml of THC or isoliquiritigenin solution prepared in a concentration of 0.03 mM (THC or isoliquiritigenin was dissolved in a physiological saline solution containing 1% sodium bicarbonate, the resultant solution being diluted with Locke's solution) was added to 0.3 ml of the solution of rat peritoneal exudation cells obtained in (1) above and were incubated at 37° C. for 5 minutes. Then, 0.2 ml each of a Lock's solution of Compound 48/80 (1 mg/100 ml) was added to the solution and the mixture was incubated at 37° C. for 10 minutes. After the reaction was stopped by cooling, the obtained solution was centrifuged at 2,500 rpm for 10 minutes to separate into 1.7 ml of supernatant and 0.3 ml of sediment. Water (0.1 ml) and 0.2 ml of 100% trichloroacetic acid were added to the supernatant, and 1.5 ml of Locke's solution and the 100% trichloroacetic acid were added to the sediment which was then allowed to stand for 30 minutes at room temperature and was centrifuged at 3000 rpm for 15 minutes. A portion (0.35 ml) of each of the supernatant and the supernatant of the sediment was taken and 1.65 ml of water and 0.4 ml of 1N sodium hydroxide were added in turn to each of the supernatants. 0.5% OPT (orthophthalaldehyde) methanol solution (0.1 ml) was added to each of the resultant solutions which were then allowed to react at room temperature for 4 minutes. After the reaction was stopped by the addition of 0.2 ml of 2M citric acid, the fluorescence of each of the reaction solutions was measured by a fluorophotometer.
# As a control, Locke's solution was added instead of the solution of THC and, as a blank, the Locke's solution was added instead of THC and Compound 48/80, the other operations being the same as those described above.
# The inhibition ratio of THC or isoliquiritigenin for the liberation of histamine by Compound 48/80 is calculated from the following equations: [formula] Ps: Amount of free histamines (in the supernatant) Pr: Amount of remaining histamines (in the sediment) [formula] I: Value of A of THC or isoliquiritigenin C: Value of A of the control
# B: Value of A of the blank
# [3] = tested on: carragheenin-induced paw edema; assay: Antiinflammatory activity: carragheenin-induced paw edema; format: in vivo, SD male rat; settings: 300 mg/kg, oral, 60 minutes before carragheenin; rat
# Method: The antiinflammatory activity of THC was tested by using carragheenin-induced paw edema method widely used for the evaluation of the effectiveness of general antiinflammatory drugs (NSAID).
# A 1%-λ-carragheenin physiological saline solution (0.1 ml) was subcutaneously injected to the right paw of an SD male rat weighing from 200 to 250 g, and the volume of paw was measured after 30, 60, 90, 120, 180 and 300 minutes, respectively. The test drug (THC) had been administered orally in a dosage of 1.0 ml/200 g 60 minutes before the administration of carragheenin. The control group was administered orally with the solvent only in the same dosage. Edema ratio was calculated according to the following equation.
# Edema Ratio=[(Ps-P0)/P0 ]×100
# where Ps stands for value measured at a point in time after elapse of a predetermined time, and P0 value indicates a value measured at 0 minute after the administration.
# [4] = compared with isoliquiritigenin
SMILES,minimum lethal dose (ddy mice; intraperitoneal injection),minimum lethal dose (ddy mice; oral administration),Inhibition Ratio (ulcer) [1],Ulcer Index [1],inhibitory activity against hydrochloric acid-ethanol-induced ulcer (in words) ([1]; rat),Blood Urea Nitrogen [2],"suppression of the increase in blood urea nitrogen due to kidney injury induced by cis-platinum (in words) [2, 4]",Liberation Ratio of Histamine (mast cells) [%],inhibition at 30 µM (mast cells) [%],inhibition effect on histamine liberation from rat mast cells caused by Compound 48/80 (in words) (mast cells; [4]),inhibitory effect against carragheenin-induced edema [3]
"O=C(/C=C/c1ccc(O)c(O)c1)c1ccc(O)cc1O [THC, 2',3,4,4'-tetrahydroxychalcone]","not less than 1,000 mg/kg","not less than 3,000 mg/kg",97.3,1.2 ± 2.5,remarkable inhibitory activity,47.1 ± 12.6,more potently than isoliquiritigenin,10.4,91.1,more potent than isoliquiritigenin,marked inhibitory effect
"NC[C@H]1CC[C@H](C(=O)Oc2ccc(CCC(=O)O)cc2)CC1 [Cetraxate hydrochloride, reference compound]",–,–,75.7,11.2 ± 20.0,–,–,–,–,–,–,–
"O=C(/C=C/c1ccc(O)cc1)c1ccc(O)cc1O [isoliquiritigenin, reference compound]",–,–,–,–,–,70.6 ± 14.0,–,71.2,14.2,–,–

# — patent publication US5109025A, “Therapeutic agent for penal disorders” (Dainippon Ink and Chemicals, Inc., priority 1988, dated 1992)
